Each molecule was assayed against T1, rat striatal 5HT6 receptors (Rattus norvegicus, UniProt P31388) (assay: [125I]SB258585 binding to rat striatal 5HT6 receptors). Conditions: competition with [125I]SB258585, rat striatal membranes.
T1 construct: Striatal tissue from adult rats (Sprague-Dawley, 320-370 g, B & K Sweden) were dissected out, weighed and homogenized; from tissue; host or cells: rat striatum (Sprague-Dawley) membranes
Experimental: Method for [125I]SB258585 binding to rat striatal 5HT6 receptors
[125I]SB258585 (1) with specific activity 2000 Ci/mmol was purchased from Amersham Biosciences Europe GmbH, Freiburg, Germany. Other chemicals were purchased from commercial sources and were of analytical grade.
Striatal tissue from adult rats (Sprague-Dawley, 320-370 g, B & K Sweden) were dissected out, weighed and homogenized in buffer containing 50 mM Tris-HCl, 4 mM MgCl2, 1 mM EDTA, 10 μM pargyline and protease inhibitor (Complete, Roche Diagnostics) pH 7.4 using an Ultra-Turrax T8 (IKA Labortechnik, Germany). The tissue homogenate was centrifuged at 48 000×g for 10 min and the pellet was resuspended and recentrifuged as above. The final membranes were diluted in buffer to a concentration of 60 mg original wet weight (w.w.) per ml and stored in aliquots at −70° C.
Saturation binding studies were carried out in duplicate with 1-3 mg w.w. per tube in 0.5 ml buffer (50 mM Tris, 4 mM MgCl2, 100 mM NaCl, 1 mM EDTA, 5 mM ascorbate and 10 μM pargyline at pH 7.4), 0.2 nM [125I]SB258585 and unlabelled SB258585 to give a final concentration range of 0.23-20 nM (12 conc.). Non-specific binding was determined in the presence of 10 μM methiothepin. In the competition experiments 0.8-2 mg w.w. per tube and a radioligand concentration of 0.5-1 nM were used with 7 concentrations of the competing drug pre-dissolved in DMSO and diluted in buffer. The assays were incubated for 1-3 hours at room temperature, and terminated by rapid filtration through Whatman GF/B filters pretreated with 0.3% polyethyleneimine using a Brandel cell harvester. The radioactivity was determined in a Packard Tri-Carb 2900TR liquid scintillation counter. Data were analyzed by non-linear regression analyses using PRISM 4.00 (GraphPad Software Inc., San Diego, Calif.).
Hirst, W. D., Minton, J. A. L., Bromidge, S. M., Moss, S. F., Latter, A., Riley, G., Routledge, C., Middlemiss, D. N. & Price, G. W. (2000). Characterization of [125I]-SB-258585 binding to human recombinant and native 5HT6 receptors in rat, pig and human brain tissue. Br. J. Pharmacol., 130, 1597-1605.

T1 sequence (P31388 whole entry): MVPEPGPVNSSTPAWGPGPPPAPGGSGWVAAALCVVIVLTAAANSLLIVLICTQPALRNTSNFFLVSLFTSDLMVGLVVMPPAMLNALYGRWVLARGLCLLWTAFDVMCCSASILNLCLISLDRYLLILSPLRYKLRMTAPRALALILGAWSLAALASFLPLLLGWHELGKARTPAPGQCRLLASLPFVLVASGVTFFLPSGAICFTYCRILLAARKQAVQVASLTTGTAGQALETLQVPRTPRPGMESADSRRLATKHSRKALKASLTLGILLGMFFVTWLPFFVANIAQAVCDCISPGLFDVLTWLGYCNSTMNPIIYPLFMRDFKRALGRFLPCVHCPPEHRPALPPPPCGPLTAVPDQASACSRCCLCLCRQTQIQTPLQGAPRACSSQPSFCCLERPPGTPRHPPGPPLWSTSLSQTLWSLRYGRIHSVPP

Row | Compound | Ki [nM]
1 | COc1ccc(NS(=O)(=O)c2ccc3ccccc3c2)c2c1C[C@@H](N(C)C)CO2 [Example 24, N-[(3R)-3-(dimethylamino)-5-methoxy-3,4-dihydro-2H-chromen-8-yl]naphthalene-2-sulfonamide] | 42 ± 27
2 | COc1ccc(NS(=O)(=O)c2ccc(-c3ccnc(SC)n3)s2)c2c1C[C@@H](N(C)C)CO2 [Example 135, N-[(3R)-3-(dimethylamino)-5-methoxy-3,4-dihydro-2H-chromen-8-yl]-5-[2-(methylthio)pyrimidin-4-yl]thiophene-2-sulfonamide] | 49 ± 16
3 | CN(C)[C@H]1CCc2c(cccc2NS(=O)(=O)c2cccc(Br)c2)C1 [Example 170, (2S)-5-{[(3-Bromophenyl)sulfonyl]amino}-N,N-dimethyl-1,2,3,4-tetrahydronaphthalen-2-ammonium Acetate] | 74
4 | COc1ccc(NS(=O)(=O)c2cc(Cl)cc(Cl)c2)c2c1C[C@@H](N1CCCC1)CC2 [Example 313, 3,5-Dichloro-N-[(6S)-4-methoxy-6-pyrrolidin-1-yl-5,6,7,8-tetrahydronaphthalen-1-yl]benzenesulfonamide] | 290 ± 190

Now those with a lower Ki, led by results:

Row | Ki [nM] | Compound
5 | 7.5 ± 3.6 | COc1ccc(NS(=O)(=O)c2cccc(Br)c2)c2c1C[C@@H](N(C)C)CO2 [Example 3, 3-Bromo-N-[(3R)-3-(dimethylamino)-5-methoxy-3,4-dihydro-2H-chromen-8-yl]benzenesulfonamide]
6 | 2 ± 0.6 | COc1ccc(NS(=O)(=O)c2ccccc2-c2ccccc2)c2c1C[C@@H](N(C)C)CO2 [Example 122, N-[(3R)-3-(dimethylamino)-5-methoxy-3,4-dihydro-2H-chromen-8-yl]-1,1′-biphenyl-2-sulfonamide]
7 | 13 ± 5.9 | COc1ccc(NS(=O)(=O)c2ccccc2-c2ccccc2)c2c1C[C@@H](N(C)C)CC2 [Example 176, N-[(6S)-6-(dimethylamino)-4-methoxy-5,6,7,8-tetrahydronaphthalen-1-yl]-1,1′-biphenyl-2-sulfonamide]
8 | 19 ± 0.8 | COc1ccc(NS(=O)(=O)c2sc3ccc(F)cc3c2C)c2c1C[C@@H](N(C)C)CC2 [Example 181, N-[(6S)-6-(dimethylamino)-4-methoxy-5,6,7,8-tetrahydronaphthalen-1-yl]-5-fluoro-3-methyl-1-benzothiophene-2-sulfonamide]

From patent publication US20090030038A1, “Novel 8-Sulfonylamino-3 Aminosubstituted Chroman or Tetrahydronaphtalene Derivatives Modulating the 5Ht6 Receptor” (ASTRAZENECA AB, priority 2005, published 2009)
